Assay [1] addresses T1, HT-HsProRS (Homo sapiens, UniProt P07814).
T1 sequence (P07814 996-1512): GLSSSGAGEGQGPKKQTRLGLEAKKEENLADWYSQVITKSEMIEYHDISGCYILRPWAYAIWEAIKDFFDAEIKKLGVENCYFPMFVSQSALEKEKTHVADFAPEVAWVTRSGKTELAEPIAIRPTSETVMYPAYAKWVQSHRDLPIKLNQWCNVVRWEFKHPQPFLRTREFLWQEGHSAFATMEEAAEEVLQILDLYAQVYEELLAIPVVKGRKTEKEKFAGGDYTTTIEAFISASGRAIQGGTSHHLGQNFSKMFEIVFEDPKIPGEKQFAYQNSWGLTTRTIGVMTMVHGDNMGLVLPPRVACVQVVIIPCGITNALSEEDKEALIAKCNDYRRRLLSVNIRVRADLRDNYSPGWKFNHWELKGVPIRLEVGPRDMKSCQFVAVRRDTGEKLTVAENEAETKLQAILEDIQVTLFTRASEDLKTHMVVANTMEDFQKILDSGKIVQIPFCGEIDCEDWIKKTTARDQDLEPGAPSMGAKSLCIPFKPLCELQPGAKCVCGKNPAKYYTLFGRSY
Briefly: biochemical.
Experimental: (§1) A Multidrop Combi Reagent Dispenser (Thermo Fisher Scientific) was used to dispense 20 μL of 2× protein solution into each well. […] Plates were mixed on an Ika MTS 2/4 Digital Microtiter Shaker at 750 rpm for 2 min, centrifuged at 1000 × g at 25 °C for 1 min, and allowed to equilibrate for 2 h at room temperature before TR-FRET measurements were taken.
(§2) PRISM (V. 8.4.3–9.1.0, GraphPad) was used to perform non-linear regression analysis (log(inhibitor) vs. response–Variable slope (four parameters)), plot dose-response curves, and calculate IC50 values. The Cheng–Prusoff equation was used to convert IC50 to KD values (Eq. (4)):4 KD=IC50/1+[MAT379]/KD,MAT379

Assay [2] has as its target HT-PfcProRS (Plasmodium falciparum, UniProt Q8I5R7). Briefly: biochemical.
Experimental: as §1, §2
In assay [3] the target is T2, HsProRS (Homo sapiens, UniProt P07814). As to conditions: ref Heacock et al.; cited from earlier work.
The target of assay [4] is T1, HT-HsProRS. To be noted: replicates 1-4.
Experimental: as §1, §2
In assay [5] the test system is P. falciparum Dd2-2D4 NCP26 selections S1-3. Briefly: ABS growth assay on bulk populations and clones from NCP26 resistance selections S1-3. Type of assay: cell-based, Plasmodium falciparum. To be noted: for EC50: Plasmodium falciparum; for Fold-change Resistance: independent experiments.
Experimental: In short, P. falciparum erythrocytic-stage parasites at 1% parasitemia and 1% hematocrit in RPMI + 0.5% Albumax were seeded at 40 μL/well in 384-well plates with test compounds in triplicate, dose-response format with 10 μM dihydroartemisinin as a kill-control and blank (no compound) wells as a growth-control. […] After 72 h, growth was quantified by measuring fluorescence (Molecular Devices SpectraMax iD5) following SYBR Green 1 staining. Data were analyzed in Excel and plotted in PRISM (V. 8.4.3–9.1.0, GraphPad).
This cycle was repeated for ~50 generations (~100 days), corresponding to 5–6 cycles of drug pressure.
Clonal parasites were isolated from each selection flask by limiting dilution of ring stage parasites in 96-well plates to an average of 0.8 and 0.2 parasites per well.
Assay [6] has as its system P. falciparum Dd2-2D4. Briefly: P. falciparum asexual blood stage (ABS) growth assay, SYBR Green, 72 h, wild-type parasites. The format is cell-based, Plasmodium falciparum. As to conditions: Plasmodium falciparum.
Assay [7] concerns the target T2, HsProRS. The assay can be described thus: TR-FRET ligand displacement assay with tracer MAT379 (CoraFluor-1-Halo and anti-His6 antibody formats). To be noted: for normalized TR-FRET signal (Fig 2k): 15 pM HT-HsProRS; for normalized TR-FRET signal (dose-response replicates): SI Fig 15, titrating, listed as ProSA (25). The arrangement: made in house; host or cells: E. coli SoluBL-21. The format is binding. Background: Time-resolved FRET reads energy transfer from a long-lived donor to a nearby acceptor.

The mark [8] stands for this setting: DD2, cell line S1 - Clone A8, read-out: EC50 [nM] mean.
The mark [9] stands for this setting: DD2, cell line S2 - Clone A3, read-out: EC50 [nM] mean.
[10] abbreviates: DD2, cell line S2 - Clone B9, read-out: EC50 [nM] mean.
[11] abbreviates: DD2, cell line S2 - Clone C5, read-out: EC50 [nM] mean.
Setting [12] is: DD2, cell line S3 - Clone B3, read-out: EC50 [nM] mean.
Setting [13] is: DD2, cell line S3 - Clone B7, read-out: EC50 [nM] mean.
The mark [14] stands for this setting: DD2, read-out: EC50 [nM] mean, cell line S3 - Clone B2.
[15] abbreviates: DD2, cell line S1 - bulk population, read-out: EC50 [nM] mean.
[16] abbreviates: DD2, cell line S2 - bulk population, read-out: EC50 [nM] mean.
Setting [17] is: DD2, cell line S3 - bulk population, read-out: EC50 [nM] mean.
[18] abbreviates: cell line Dd2-2D4 (parent), read-out: EC50 [nM] mean.

Structures are written as SMILES. “And” between values parts separate entries of the source, which are not always exact repeats. Equal values may be shown once. Read-outs that look alike come from different tables or passages of the source.

The values below come from publication PMC9403976, “Elucidating the path to Plasmodium prolyl-tRNA synthetase inhibitors that overcome halofuginone resistance” (Nature Communications, 2022).

Sequence of HT-PfcProRS (Q8I5R7 249-746): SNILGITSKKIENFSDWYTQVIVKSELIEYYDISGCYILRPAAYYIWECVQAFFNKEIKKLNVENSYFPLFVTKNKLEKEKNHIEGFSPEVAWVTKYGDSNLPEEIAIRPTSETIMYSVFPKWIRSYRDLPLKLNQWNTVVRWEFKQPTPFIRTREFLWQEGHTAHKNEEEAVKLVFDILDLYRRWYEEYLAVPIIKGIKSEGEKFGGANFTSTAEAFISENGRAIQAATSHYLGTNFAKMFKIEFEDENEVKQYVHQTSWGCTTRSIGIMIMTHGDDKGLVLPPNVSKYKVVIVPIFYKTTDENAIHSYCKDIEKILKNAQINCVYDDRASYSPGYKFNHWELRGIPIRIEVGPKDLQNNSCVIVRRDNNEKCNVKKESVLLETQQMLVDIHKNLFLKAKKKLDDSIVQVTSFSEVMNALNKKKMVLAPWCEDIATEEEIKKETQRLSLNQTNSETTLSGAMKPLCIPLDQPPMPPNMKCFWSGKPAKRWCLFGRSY

For the molecule `Nc1ncnc2c1ncn2[C@@H]1O[C@H](COP(=O)(O)OP(=O)(O)OP(=O)(O)O)[C@@H](O)[C@H]1O` [ATP], the Kd in assay [1] (HsProRS (KD [nM]) mean, substrates, substrate KD, (-)) turned out to be 67100 nM; in assay [1] (KD of substrate, […] HT-HsProRS, 1000 nM MAT379), 30600 nM; in assay [2], 892000 nM. The Km in assay [3] was 500 µM. Moreover, the “ATP - […] HT-HsProRS - 1000nM MAT379” value in assay [4] (Log[Substrate] (M) -1.301) was 1.53E-02 and -2.24E-04 and 3.02E-02 and 2.38E-02; in assay [4] (Log[Substrate] (M) -1.602) it was 2.53E-02 and 6.72E-02 and 4.62E-03 and 4.29E-02; in assay [4] (Log[Substrate] (M) -1.903), 3.94E-02 and 5.54E-02 and 1.78E-02 and 4.02E-02; in assay [4] (Log[Substrate] (M) -2.204) it was -1.77E-02 and 2.78E-02 and -2.71E-02; in assay [4] (Log[Substrate] (M) -2.505), 4.93E-03 and 1.38E-02 and 2.29E-03 and -1.57E-02; in assay [4] (Log[Substrate] (M) -2.806) it was 3.39E-02 and 3.33E-02 and 1.97E-02 and 4.46E-02. The “ATP - […] HT-HsProRS - 1000nM MAT379” value in assay [4] (Log[Substrate] (M) -3.107) was 5.86E-02 and 6.01E-02 and 5.77E-02 and 4.19E-02; in assay [4] (Log[Substrate] (M) -3.408), 1.19E-01 and 8.31E-02 and 6.99E-02; in assay [4] (Log[Substrate] (M) -3.709), 1.24E-01 and 1.53E-01 and 1.47E-01 and 1.40E-01; in assay [4] (Log[Substrate] (M) -4.010), 2.51E-01 and 2.58E-01 and 2.34E-01 and 2.36E-01; in assay [4] (Log[Substrate] (M) -4.311), 3.56E-01 and 3.10E-01 and 3.57E-01 and 3.37E-01; in assay [4] (Log[Substrate] (M) -4.612) it was 2.50E-01 and 3.45E-01 and 2.88E-01 and 2.85E-01. Further, the “ATP - […] HT-HsProRS - 1000nM MAT379” value was 3.70E-01 and 3.71E-01 and 3.06E-01 and 3.78E-01 in assay [4] (Log[Substrate] (M) -4.913); 3.77E-01 and 4.09E-01 and 3.64E-01 and 3.70E-01 in assay [4] (Log[Substrate] (M) -5.214); 4.23E-01 and 4.03E-01 and 4.00E-01 and 4.38E-01 in assay [4] (Log[Substrate] (M) -5.515); 4.03E-01 and 4.66E-01 and 3.88E-01 and 4.49E-01 in assay [4] (Log[Substrate] (M) -5.816); 4.47E-01 and 4.50E-01 and 4.51E-01 and 4.46E-01 in assay [4] (Log[Substrate] (M) -6.118); 4.22E-01 and 4.52E-01 and 3.59E-01 and 4.01E-01 in assay [4] (Log[Substrate] (M) -6.419).

Turning to `Nc1ncnc2c1ncn2[C@@H]1O[C@H](COS(=O)(=O)NC(=O)[C@@H]2CCCN2)[C@@H](O)[C@H]1O` [ProSA, reference compound], the EC50 in assay [5] (setting [8]) came out at 258 nM; in assay [5] (setting [9]), 209 nM; in assay [5] (setting [10]), 267 nM; in assay [5] (setting [11]), 243 nM; in assay [5] (setting [12]), 593 nM; in assay [5] (setting [13]), 909 nM. Besides, the EC50 in assay [5] (setting [14]) is 838 nM; in assay [6] (DD2, SI Fig 16b, values on -log scale, read-out: ABS - Dd2-2D4 (converted)), 151 nM. The “normalized TR-FRET signal (Fig 2k)” value in assay [7] (Log[inhibitor] (M) -10.319) was 9.27E-01 and 5.96E-01 and 5.68E-01 and 6.24E-01 and 7.95E-01 and 4.77E-01; in assay [7] (Log[inhibitor] (M) -10.921), 1.19E+00 and 1.45E+00 and 8.99E-01 and 1.44E+00; in assay [7] (Log[inhibitor] (M) -11.098), 1.29E+00 and 1.17E+00 and 7.99E-01 and 9.06E-01. In addition, the “normalized TR-FRET signal (Fig 2i)” value in assay [7] (Log[inhibitor] (M) -8.208) is 2.86E-01 and 2.69E-01 and 2.23E-01; in assay [7] (Log[inhibitor] (M) -8.509), 5.48E-01 and 5.47E-01 and 6.11E-01; in assay [7] (Log[inhibitor] (M) -8.796) it was 8.53E-01 and 8.04E-01 and 8.09E-01; in assay [7] (Log[inhibitor] (M) -9.108) it was 9.05E-01 and 8.48E-01 and 8.77E-01; in assay [7] (Log[inhibitor] (M) -9.409) it was 8.95E-01. The “normalized TR-FRET signal (Fig 2j)” value in assay [7] (Log[inhibitor] (M) -8.208) is 2.20E-01 and 2.14E-01 and 2.31E-01; in assay [7] (Log[inhibitor] (M) -8.509), 6.99E-01 and 6.28E-01 and 5.28E-01; in assay [7] (Log[inhibitor] (M) -8.796), 7.16E-01 and 7.19E-01 and 8.75E-01; in assay [7] (Log[inhibitor] (M) -9.108), 8.43E-01 and 8.74E-01 and 8.91E-01; in assay [7] (Log[inhibitor] (M) -10.602), 8.90E-01. Moreover, the “normalized TR-FRET signal (dose-response replicates)” value in assay [7] (Log[inhibitor] (M) -7.601) is -6.47E-02 and -3.87E-03 and 4.40E-03; in assay [7] (Log[inhibitor] (M) -7.904) it was 4.29E-02 and -1.08E-01 and 6.52E-02; in assay [7] (Log[inhibitor] (M) -8.208), 2.09E-01 and 4.52E-01 and 3.79E-01; in assay [7] (Log[inhibitor] (M) -8.509) it was 6.59E-01 and 7.25E-01 and 6.81E-01; in assay [7] (Log[inhibitor] (M) -8.796), 8.90E-01 and 6.94E-01 and 8.02E-01; in assay [7] (Log[inhibitor] (M) -9.108) it was 8.78E-01 and 8.82E-01. Also, the “normalized TR-FRET signal (dose-response replicates)” value in assay [7] (Log[inhibitor] (M) -10.301) is 9.09E-01; in assay [7] (Log[inhibitor] (M) -10.602), 1.29E+00; in assay [7] (Log[inhibitor] (M) -11) it was 9.02E-01.

For the molecule `C[C@@H]1C[C@H](C)C[C@H](C)[C@@H](O)CC(=O)O[C@H]([C@@H]2CCC[C@H]2C(=O)O)C/C=C/C=C(/C#N)[C@H](O)[C@@H](C)C1` [Borrelidin, borrelidin, reference compound], the EC50 in assay [5] (setting [8]) was determined as 1.5 nM; in assay [5] (setting [15]), 1.45 nM; in assay [5] (setting [9]), 1.6 nM; in assay [5] (setting [10]), 4.67 nM; in assay [5] (setting [11]) it was 1.51 nM; in assay [5] (setting [16]) it was 1.3 nM. For the same molecule, the EC50 was found to be 1.34 nM in assay [5] (setting [12]); 1.38 nM in assay [5] (setting [13]); 1.3 nM in assay [5] (setting [17]); 5.92 nM in assay [5] (setting [14]); 6.05 nM in assay [6] (setting [18]). Further, the “Fold-change Resistance” value in assay [5] (S2 - Clone B9) was 1.46 and 0.77; in assay [5] (S3 - Clone B2) it was 1.02 and 1.96.

As for `C[C@H]1[C@@H](O)O[C@@H]2O[C@@]3(C)CC[C@H]4[C@H](C)CC[C@@H]1[C@@]24OO3` [DHA, dihydroartemisinin, reference compound], the EC50 in assay [5] (setting [8]) worked out at 3.4 nM; in assay [5] (setting [15]), 4.5 nM; in assay [5] (setting [9]) it was 2 nM; in assay [5] (setting [10]), 10.1 nM; in assay [5] (setting [11]), 3.48 nM; in assay [5] (setting [16]) it was 3.55 nM. In addition, the EC50 in assay [5] (setting [12]) was found to be 3.51 nM; in assay [5] (setting [13]), 3.12 nM; in assay [5] (setting [17]) it was 3.44 nM; in assay [5] (setting [14]) it was 8.34 nM; in assay [6] (setting [18]), 4.95 nM.

A word on the Kd: it is the free concentration of one partner at which half of the binding sites on the other are occupied at equilibrium, for simple one-to-one binding. A high value points to weaker binding. One may read the Km as the concentration of substrate that gives half-maximal velocity.
